Results taken from patent US20230373939A1 (VERTEX PHARMACEUTICALS INCORPORATED, priority 2020, published 2023).
Like-named read-outs stand apart in the source and are kept apart here.

Target: T1, F508del in NIH 3T3 cells (Homo sapiens, UniProt P13569, DEL508-508)
T1 construct: expressed in transfected cells
Assay: 3T3 assay: membrane potential optical assay for F508del correction
Assay type: cell-based
Text: 1. Membrane Potential Optical Methods for Assaying F508del Modulation Properties of Compounds
The assay utilizes fluorescent voltage sensing dyes to measure changes in membrane potential using a fluorescent plate reader (e.g., FLTPR III, Molecular Devices, Inc.) as a readout for increase in functional F508del in NIH 3T3 cells. The driving force for the response is the creation of a chloride ion gradient in conjunction with channel activation by a single liquid addition step after the cells have previously been treated with compounds and subsequently loaded with a voltage sensing dye.
2. Identification of Corrector Compounds
To identify correctors of F508del, a single-addition HTS assay format was developed. This HTS assay utilizes fluorescent voltage sensing dyes to measure changes in membrane potential on the FLIPR III as a measurement for increase in gating (conductance) of F508del in F508del NUT 3T3 cells. The F508del NUT 3T3 cell cultures were incubated with the corrector compounds at a range of concentrations for 18-24 hours at 37° C., and subsequently loaded with a redistribution dye. The driving force for the response is a Cl^− ion gradient in conjunction with channel activation with forskolin in a single liquid addition step using a fluorescent plate reader such as FLIPR III.
Bath Solution #1: (in mM) NaCl 160, KCl 4.5, CaCl2 2, MgCl2 1, HEPES 10, pH 7.4 with NaOH.
Chloride-free bath solution: Chloride salts in Bath Solution #1 (above) are substituted with gluconate salts.
NIH3T3 mouse fibroblasts stably expressing F508del were used for optical measurements of membrane potential. The cells were maintained at 37° C. in 5% CO2 and 90% humidity in Dulbecco's modified Eagle's medium supplemented with 2 mM glutamine, 10% fetal bovine serum, 1×NEAA, b-ME, 1×pen/strep, and 25 mM HEPES in 175 cm^2 culture flasks. For all optical assays, the cells were seeded at ˜20,000/well in 384-well Matrigel-coated plates. For the correction assays, the cells were cultured at 37° C. with and without compounds for 16-24 hours.

[1] = NIH3T3, NIH 3T3 cells, F508del, read-out: 3T3 Max Activity (%)
[2] = NIH 3T3 cells, F508del, read-out: 3T3 EC50
[3] = NIH3T3, read-out: 3T3 Max Activity (%)

T1 sequence (P13569 with tags, fused parts or gaps DEL508-508): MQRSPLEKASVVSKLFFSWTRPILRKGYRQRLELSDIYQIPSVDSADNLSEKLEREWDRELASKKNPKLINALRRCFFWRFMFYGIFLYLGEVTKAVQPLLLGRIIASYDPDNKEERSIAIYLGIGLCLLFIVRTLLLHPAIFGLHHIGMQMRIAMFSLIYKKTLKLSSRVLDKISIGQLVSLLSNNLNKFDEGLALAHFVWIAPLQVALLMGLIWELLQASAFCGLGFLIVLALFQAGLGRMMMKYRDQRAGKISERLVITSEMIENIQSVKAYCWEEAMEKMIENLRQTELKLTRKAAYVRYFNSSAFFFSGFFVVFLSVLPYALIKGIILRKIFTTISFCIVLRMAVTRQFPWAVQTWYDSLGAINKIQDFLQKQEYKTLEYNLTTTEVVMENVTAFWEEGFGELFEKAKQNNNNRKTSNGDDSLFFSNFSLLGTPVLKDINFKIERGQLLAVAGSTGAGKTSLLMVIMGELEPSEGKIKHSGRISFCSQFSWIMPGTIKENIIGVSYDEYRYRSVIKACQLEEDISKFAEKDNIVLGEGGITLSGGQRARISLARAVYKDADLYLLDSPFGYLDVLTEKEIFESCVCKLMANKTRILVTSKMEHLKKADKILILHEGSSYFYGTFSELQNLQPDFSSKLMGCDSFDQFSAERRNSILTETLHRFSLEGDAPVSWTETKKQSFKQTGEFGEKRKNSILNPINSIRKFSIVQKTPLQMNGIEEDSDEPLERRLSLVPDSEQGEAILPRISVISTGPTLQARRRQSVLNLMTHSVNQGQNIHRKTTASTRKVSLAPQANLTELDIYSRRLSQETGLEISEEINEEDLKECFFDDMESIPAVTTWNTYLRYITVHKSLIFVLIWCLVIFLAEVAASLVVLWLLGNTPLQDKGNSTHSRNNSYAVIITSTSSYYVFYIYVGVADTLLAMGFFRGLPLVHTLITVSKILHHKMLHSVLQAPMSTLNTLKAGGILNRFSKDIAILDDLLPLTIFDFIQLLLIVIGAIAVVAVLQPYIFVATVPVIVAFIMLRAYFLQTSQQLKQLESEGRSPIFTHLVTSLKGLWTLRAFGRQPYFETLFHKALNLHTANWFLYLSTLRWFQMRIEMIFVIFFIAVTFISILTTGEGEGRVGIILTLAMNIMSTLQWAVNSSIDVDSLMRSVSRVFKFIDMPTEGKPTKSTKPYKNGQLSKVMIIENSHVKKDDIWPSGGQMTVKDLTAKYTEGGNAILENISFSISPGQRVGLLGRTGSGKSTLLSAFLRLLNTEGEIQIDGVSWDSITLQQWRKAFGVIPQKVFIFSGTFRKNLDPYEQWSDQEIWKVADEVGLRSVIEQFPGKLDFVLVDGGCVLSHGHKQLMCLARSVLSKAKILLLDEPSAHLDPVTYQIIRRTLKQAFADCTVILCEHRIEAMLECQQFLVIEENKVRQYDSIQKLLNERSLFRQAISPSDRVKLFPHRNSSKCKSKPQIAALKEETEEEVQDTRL

CCCNC(=O)c1sc(NS(=O)(=O)c2ccccc2)nc1-c1ccccc1 [Compound 39, 2-(benzenesulfonamido)-4-phenyl-N-propyl-thiazole-5-carboxamide]
Emax [1]: < 30%

COC(=O)Cc1nc(NS(=O)(=O)c2ccccc2)sc1-c1ccccc1 [Compound 40, methyl 2-[2-(benzenesulfonamido)-5-phenyl-thiazol-4-yl]acetate]
Emax [1]: 30 to 60% | EC50 [2]: 3 to 30 µM

CCOC(=O)c1nc(NS(=O)(=O)c2ccccc2)sc1-c1ccccc1 [Compound 41, ethyl 2-(benzenesulfonamido)-5-phenyl-thiazole-4-carboxylate]
Emax [1]: 30 to 60% | EC50 [2]: 1 to 3 µM

O=C(O)c1sc(NS(=O)(=O)c2ccccc2)nc1-c1ccccc1 [Compound 42, 4-phenyl-2-(phenylsulfonamido)thiazole-5-carboxylic acid]
Emax [1]: 30 to 60%

Cc1sc(NS(=O)(=O)c2ccccc2)nc1-c1ccncc1 [Compound 43, N-[5-methyl-4-(4-pyridyl)thiazol-2-yl]benzenesulfonamide]
Emax [1]: < 30%

Cc1nc(NS(=O)(=O)c2ccccc2)sc1-c1csc(Nc2ncccn2)n1 [Compound 44, N-[4-methyl-5-[2-(pyrimidin-2-ylamino)thiazol-4-yl]thiazol-2-yl]benzenesulfonamide]
Emax [1]: < 30%

CC(C)(C)c1nc(NS(=O)(=O)c2ccccc2)sc1C#N [Compound 45, N-(4-tert-butyl-5-cyano-thiazol-2-yl)benzenesulfonamide]
Emax [1]: < 30%

Cc1nc(NS(=O)(=O)c2ccccc2)sc1C [Compound 46, N-(4,5-dimethylthiazol-2-yl)benzenesulfonamide]
Emax [1]: < 30%

CCCc1nc(NS(=O)(=O)c2ccccc2)sc1C [Compound 47, N-(5-methyl-4-propyl-thiazol-2-yl)benzenesulfonamide]
Emax [1]: < 30%

Cc1cccc(-c2cc(NS(=O)(=O)c3ccccc3)nn2-c2c(C)cc(C)cc2C)c1 [Compound 48, N-[5-(m-tolyl)-1-(2,4,6-trimethylphenyl)pyrazol-3-yl]benzenesulfonamide]
Emax [3]: > 60% | EC50 [2]: < 1 µM

Cc1cc(C)c(-n2nc(NS(=O)(=O)c3ccccc3)cc2-c2ccc(Oc3ccccc3)cc2)c(C)c1 [Compound 49, N-[5-(4-phenoxyphenyl)-1-(2,4,6-trimethylphenyl)pyrazol-3-yl]benzenesulfonamide]
Emax [3]: 30 to 60% | EC50 [2]: < 1 µM

COc1cccc(-c2cc(NS(=O)(=O)c3ccccc3)nn2-c2c(C)cc(C)cc2C)c1 [Compound 50, N-[5-(3-methoxyphenyl)-1-(2,4,6-trimethylphenyl)pyrazol-3-yl]benzenesulfonamide]
EC50: 1 to 3 µM | Emax [3]: > 60%

CC(C)=Cc1cc(NS(=O)(=O)c2ccccc2)nn1-c1c(C)cc(C)cc1C [Compound 51, N-[5-(2-methylprop-1-enyl)-1-(2,4,6-trimethylphenyl)pyrazol-3-yl]benzenesulfonamide]
Emax [1]: > 60% | EC50 [2]: 1 to 3 µM

Cc1cc(C)c(-n2nc(NS(=O)(=O)c3ccccc3)cc2CC(C)C)c(C)c1 [Compound 52, N-[5-isobutyl-1-(2,4,6-trimethylphenyl)pyrazol-3-yl]benzenesulfonamide]
Emax [1]: > 60% | EC50 [2]: 1 to 3 µM

Cc1cc(C)c(-n2nc(NS(=O)(=O)c3ccccc3)cc2C(C)(C)C)c(C)c1 [Compound 53, N-[5-tert-butyl-1-(2,4,6-trimethylphenyl)pyrazol-3-yl]benzenesulfonamide]
Emax [1]: < 30%

Cc1cc(C)c(-n2nc(NS(=O)(=O)c3ccccc3)cc2-c2cccc(Oc3ccccc3)c2)c(C)c1 [Compound 54, N-[5-(3-phenoxyphenyl)-1-(2,4,6-trimethylphenyl)pyrazol-3-yl]benzenesulfonamide]
Emax [1]: 30 to 60% | EC50 [2]: < 1 µM

Cc1cc(C)c(-n2nc(NS(=O)(=O)c3ccccc3)cc2-c2ccccc2Oc2ccccc2)c(C)c1 [Compound 55, N-[5-(2-phenoxyphenyl)-1-(2,4,6-trimethylphenyl)pyrazol-3-yl]benzenesulfonamide]
Emax [1]: > 60% | EC50 [2]: < 1 µM

Cc1cc(C)c(-n2nc(NS(=O)(=O)c3ccccc3)cc2-c2ccc(Cl)cc2)c(C)c1 [Compound 56, N-[5-(4-chlorophenyl)-1-(2,4,6-trimethylphenyl)pyrazol-3-yl]benzenesulfonamide]
Emax [1]: 30 to 60% | EC50 [2]: < 1 µM

Cc1cc(C)c(-n2nc(NS(=O)(=O)c3ccccc3)cc2-c2cccc(Cl)c2)c(C)c1 [Compound 57, N-[5-(3-chlorophenyl)-1-(2,4,6-trimethylphenyl)pyrazol-3-yl]benzenesulfonamide]
Emax [1]: > 60% | EC50 [2]: < 1 µM

Cc1cc(C)c(-n2nc(NS(=O)(=O)c3ccccc3)cc2-c2ccccc2Cl)c(C)c1 [Compound 58, N-[5-(2-chlorophenyl)-1-(2,4,6-trimethylphenyl)pyrazol-3-yl]benzenesulfonamide]
Emax [1]: > 60% | EC50 [2]: < 1 µM

COc1ccc(-c2cc(NS(=O)(=O)c3ccccc3)nn2-c2c(C)cc(C)cc2C)cc1 [Compound 59, N-[5-(4-methoxyphenyl)-1-(2,4,6-trimethylphenyl)pyrazol-3-yl]benzenesulfonamide]
Emax [1]: 30 to 60% | EC50 [2]: < 1 µM

COc1ccccc1-c1cc(NS(=O)(=O)c2ccccc2)nn1-c1c(C)cc(C)cc1C [Compound 60, N-[5-(2-methoxyphenyl)-1-(2,4,6-trimethylphenyl)pyrazol-3-yl]benzenesulfonamide]
Emax [1]: > 60% | EC50 [2]: 1 to 3 µM

Cc1ccc(-c2cc(NS(=O)(=O)c3ccccc3)nn2-c2c(C)cc(C)cc2C)cc1 [Compound 61, N-[5-(p-tolyl)-1-(2,4,6-trimethylphenyl)pyrazol-3-yl]benzenesulfonamide]
Emax [1]: 30 to 60% | EC50 [2]: < 1 µM

Cc1cc(C)c(-n2nc(NS(=O)(=O)c3ccccc3)cc2-c2ccccc2C)c(C)c1 [Compound 62]
Emax [1]: > 60% | EC50 [2]: < 1 µM

Cc1cc(C)c(-n2nc(NS(=O)(=O)c3ccccc3)cc2C2=CCCCC2)c(C)c1 [Compound 63, N-[5-(cyclohexen-1-yl)-1-(2,4,6-trimethylphenyl)pyrazol-3-yl]benzenesulfonamide]
Emax [1]: > 60% | EC50 [2]: 1 to 3 µM

Cc1cc(C)c(-n2nc(NS(=O)(=O)c3ccccc3)cc2C2CCCCC2)c(C)c1 [Compound 64, N-[5-cyclohexyl-1-(2,4,6-trimethylphenyl)pyrazol-3-yl]benzenesulfonamide]
Emax [1]: > 60% | EC50 [2]: < 1 µM

C=C(C)c1cc(NS(=O)(=O)c2ccccc2)nn1-c1c(C)cc(C)cc1C [Compound 65, N-[5-isopropenyl-1-(2,4,6-trimethylphenyl)pyrazol-3-yl]benzenesulfonamide]
Emax [1]: > 60% | EC50 [2]: 1 to 3 µM

Cc1cc(C)c(-n2nc(NS(=O)(=O)c3ccccc3)cc2C(C)C)c(C)c1 [Compound 66, N-[5-isopropyl-1-(2,4,6-trimethylphenyl)pyrazol-3-yl]benzenesulfonamide]
Emax [1]: 30 to 60% | EC50 [2]: 1 to 3 µM

Cc1cc(C)c(-n2nc(NS(=O)(=O)c3ccccc3)cc2Br)c(C)c1 [Compound 67, N-[5-bromo-1-(2,4,6-trimethylphenyl)pyrazol-3-yl]benzenesulfonamide]
Emax [1]: > 60% | EC50 [2]: 1 to 3 µM

Cc1cc(C)c(-n2nc(NS(=O)(=O)c3ccccc3)cc2-c2ccccc2)c(C)c1 [Compound 68, N-[5-phenyl-1-(2,4,6-trimethylphenyl)pyrazol-3-yl]benzenesulfonamide]
Emax [1]: > 60% | EC50 [2]: 1 to 3 µM

O=S(=O)(Nc1nn(-c2cccc(Cl)c2)cc1-c1ccccc1)c1ccccc1 [Compound 69, N-[1-(3-chlorophenyl)-4-phenyl-pyrazol-3-yl]benzenesulfonamide]
Emax [3]: 30 to 60% | EC50 [2]: 1 to 3 µM

O=S(=O)(Nc1nn(-c2cccc(Cl)c2)cc1-c1cccc(Cl)c1)c1ccccc1 [Compound 70, N-[1,4-bis(3-chlorophenyl)pyrazol-3-yl]benzenesulfonamide]
EC50: < 1 µM | Emax [3]: 30 to 60%

O=S(=O)(Nc1cc(Cc2ccccc2)n(-c2ccccc2)n1)c1ccccc1 [Compound 71, N-(5-benzyl-1-phenyl-pyrazol-3-yl)benzenesulfonamide]
Emax [1]: < 30%

Cn1cc(S(=O)(=O)Nc2nn(-c3ccccc3)cc2Cc2ccccc2)cn1 [Compound 72, N-(4-benzyl-1-phenyl-pyrazol-3-yl)-1-methyl-pyrazole-4-sulfonamide]
Emax [1]: < 30%

Nc1cccc(S(=O)(=O)Nc2nn(-c3ccccc3)cc2Cc2ccccc2)c1 [Compound 73, 3-amino-N-(4-benzyl-1-phenyl-pyrazol-3-yl)benzenesulfonamide]
Emax [1]: 30 to 60%

O=S(=O)(Nc1nn(-c2ccccc2)cc1Cc1ccccc1)c1ccccc1 [Compound 74, N-(4-benzyl-1-phenyl-pyrazol-3-yl)benzenesulfonamide]
Emax [1]: < 30%
